Assay results from patent US8337828B2, “Use of thymosin alpha 1, alone or in combination with PTX3 or ganciclovir, for the treatment of cytomegalovirus infection” (priority 2006, dated 2012).

Experiments:
[1] = test system: spleen cells; assay: Cytokine levels in culture supernatants of spleen cells from MCMV-infected mice (ELISA); assay type: in vivo; conditions: BALB/c mice with MCMV infection, GCV compared with Thymosin alpha 1
Source text: Arrow indicates an inducible band. Lane 1, uninfected cells; lane 2, MCMV-infected; lane 3, Thymosin alpha 1 treated; lane 4, MCMV+Thymosin alpha 1 treated. (FIG. 3b) Cytokine production (pg/ml) by DC subsets treated as above. Bars indicate the standard errors. *P<0.05, cytokine production in MCMV-infected DC vs uninfected DC. **P<0.05, Thymosin alpha 1-treated vs untreated DC. (FIG. 3c) Cytokine production in mice during MCMV infection. Cytokine levels (pg/ml) in culture supernatants of spleen cells from mice with MCMV infection and treated for a week with Thymosin alpha 1 or GCV. *P<0.05, treated vs untreated mice. ND, not done.
Viral load (FIG. 4a) and cytokine production (FIG. 4b) in C57BL6, TLR4−/−, TLR9−/− and MyD88−/− mice infected with 5×10^5 PFU of MCMV and treated with 200 μg/kg Tα1 for a week. Virus titers, expressed as log 10, were quantified on MEF cells by standard plaque assay on infected tissues removed a week after infection and treatment. Cytokine (pg/ml) levels in culture supernatants of spleen cells were determined by ELISA assay. Bars indicate the standard errors. *P<0.05, Tα1-treated vs untreated mice. Results are representative of 3 independent experiments.
(§1) BALB/c or C57BL6 mice were infected with 10^5 or 5×10^5 PFU of MCMV, respectively. Virus titers, expressed as log 10, were quantified on MEF cells by standard plaque assay on lung tissues removed 7 days after the infection. Tα1 (200 μg/kg/daily for a week) and/or GCV (40 mg/kg, three times a week) were administered beginning the day of the infection. Cytokine (pg/ml) levels in culture supernatants of spleen cells (7 days) were determined by ELISA assay. Bars indicate the standard errors. *P<0.05, treated vs untreated mice. Results are representative of 3 independent experiments.
Quantification of cytokines by ELISA and ELISPOT assays. The levels of cytokines in the culture supernatants of mitogen-stimulated spleen cells (48 h stimulation with 10 μg/ml ConA) or MCMV-pulsed DC (24 h) were determined by ELISA (R&D Systems and PBL, Biomedical Lab, Milan, Italy). The detection limits (pg/ml) of the assays were <16 for IL-12 p70, <10 for IFN-., <3 for IL-10 and <10 for IFN-a. IFN-.-producing NK cells were enumerated by ELISPOT assay on purified NK (Virus Res. 2003; 98:17-467 25). Results are expressed as the mean number of cytokine-producing cells (±SE) per 10^5 cells, calculated using replicates of serial 2-fold dilutions of cells.

[2] = test system: MCMV; assay: MCMV infection in mice, virus titers by standard plaque assay on tissues; assay type: in vivo, BALB/c and C57BL6 mice
Protocol: BALB/c (FIG. 1a) and C57BL6 (FIG. 1b) mice were infected with 1×10^5 or 5×10^5 PFU of MCMV, respectively. Virus titers were quantified on MEF cells by standard plaque assay on tissues removed at different times (FIG. 1a) or a week after infection (FIG. 1b) and expressed as log 10(mean±standard errors, SE). Thymosin alpha 1 (200 μg/kg given for 7 or 14 days) and GCV (40 mg/kg given three times a week) were administered beginning the day of the infection. Controls received the scrambled peptide. Results are representative of 4 independent experiments. Bars indicate the standard errors. *P<0.05, viral load between treated and untreated mice.
as §1
Inbred C57BL6 and BALB/c mice were injected intraperitoneally (i.p.) with 1×10^5 (BALB/c) or 5×10^5 (C57BL6) plaque forming units (PFU) of MCMV. Virus titers were quantified on MEF cells by standard plaque assay on tissues removed a day after treatment. Treatments were as follow: Tα1 ([…]) and PTX3 (1 mg/k/ip) (SIGMA-Tau, Pomezia, Rome, Italy) were given daily for 7 consecutive days beginning the day of the infection. Controls received the scrambled peptide. All organs from uninfected animals were negative viruses. Virus titers are expressed as log 10 (mean±standard errors, SE).
Mice. Wild-type (WT) inbred C57BL6 and BALB/c mice, 8 to 12 weeks old, were purchased from Charles River Breeding Laboratories (Calco, Italy). Pairs of homozygous TLR9-(TLR9−/−), TLR4-(TLR4−/−), and MyD88-(MyD88−/−)-deficient mice (on the C57BL6 background), were bred under specific pathogen-free conditions at the breeding facilities of the University of Perugia, Perugia, Italy. Experiments were performed following protocols approved by the institutional animal committee and in accordance with European Economic Community Council Directive as well as institutional animal care and use guidelines.
Virus, infection and treatments. Stocks of Smith strain MCMV salivary gland extracts were prepared from BALB/c mice and titered in a standard plaque assay on BALB/c murine embryonic fibroblast (MEF) cells (J. Gen. Virol. 2002; 83:2983-2993). Mice were injected intraperitoneally (i.p.) with 1×10^5 (C57BL6) plaque forming units (PFU) of MCMV. Virus titers were quantified on MEF cells by standard plaque assay on tissues removed at different times. Treatments were as follows: Thymosin alpha 1 and the scrambled polypeptide (both from SciClone Pharmaceuticals, San Mateo, CA) were supplied as purified (the endotoxin levels were <0.03 pg/ml, by a standard limulus lysate assay) sterile, lyophilized, acetylated polypeptide. The sequences were as follows: Ac-Ser-Asp-Ala-Ala-Val-Asp-Thr-Ser-Ser-Glu -Ile-Thr-Thr-Lys-Asp-Leu-Lys-Glu-Lys-Lys-Glu-Val-Glu-Glu-Ala-Glu-Asn-O (Tα1) SEQ ID NO:1 and Ac-Ala-Lys-Ser-Asp-Val-Lys-Ala-Glu-Thr-Ser-Ser-Glu-Ile-Asp-Thr-Thr-Glu-Leu -Asp-Glu-Lys-Val-Glu-Val-Lys-Ala-Asn-Glu-OH (scrambled peptide) SEQ ID NO:2. The lyophilized powders were reconstituted in sterile water and 200 μg/kg/i.p. were given daily for 7 or 14 consecutive days beginning the day of the infection. Gancyclovir (GCV) (Cymevene; from Recordati, Milan, Italy) was administered at 40 mg/kg/i.p. three times a week, every other day, beginning 6 h after infection. Controls received the scrambled peptide or the diluent alone.
Plaque assay. Plaque assay was determined on cells grown to subconfluence and incubated with serially diluted virus samples for 2 h at 37° C. (10). […]

## Nc1nc(O)c2ncn(COC(CO)CO)c2n1 [GCV, Ganciclovir]
[1]
  IFN-a, IFN-. and IL-12p70 production: comparable to those obtained with GCV

## Ac-Ala-Lys-Ser-Asp-Val-Lys-Ala-Glu-Thr-Ser-Ser-Glu-Ile-Asp-Thr-Thr-Glu-Leu -Asp-Glu-Lys-Val-Glu-Val-Lys-Ala-Asn-Glu-OH (Ac-AKSDVKAETSSEIDTTELDEKVEVKANE-OH) [scrambled peptide]
[2]; 200 μg/kg for 7 days, both susceptible (BALB/c) and resistant (C57BL6) mice
  viral load in different visceral organs: not

## PTX3: long pentraxin protein with N-terminal domain and C-terminal domain similar to short pentraxins; from SIGMA-Tau
[2]; PTX3 alone, 1 mg/k/ip daily for 7 days, BALB/c or C57BL6 mice
  viral titers in the lung: decreased the viral titers
